Legend:
intact human islets = assay: Intact human islet assay (Ki67, cell numbers); type: cell-based; details: 8 days
Experimental: Rat or human β-cell proliferation assays were performed using dissociated primary rat or human islets. Islets were treated with the indicated compounds in the presence of EdU for 4 days before fixing and staining. EdU incorporation was measured by click reaction with AlexaFluor-647-azide (Invitrogen). For intact islet assays, primary human islets were treated for 7 or 8 days (as indicated in the legend). Rat dissociated islets were cultured in RPMI medium containing 10% FBS and human dissociated islets were cultured in PIM-S media (Prodo laboratories) with 10% human […].

primary human islets = assay: TUNEL in β-cells; type: cell-based; details: 4 days in the presence of EdU
Experimental: Supplementary Figure 2. […] (a-c) Primary human […]
for 4 days in the presence of EdU. […]
effects on TUNEL in EdU positive cells while CDK6 and Cyclin D1 increased TUNEL staining in EdU positive cells (consistent with previous reports) (n=3; mean ± SD). (d) Human islets were […]
for 16 hrs in the presence of EdU. Following treatment, cells were analyzed for TUNEL, and stained for insulin and DAPI.
TUNEL without EdU incorporation. […]
(1 picture or pasted object on this page, not shown here)

Fyn = target: T1, Fyn (Homo sapiens, UniProt P06241); assay: Kinase profiling; type: biochemical; details: read-out: Percent inhibition, Fyn
T1 construct: purchased Ambit KINOMEscan
T1 sequence (P06241 whole entry): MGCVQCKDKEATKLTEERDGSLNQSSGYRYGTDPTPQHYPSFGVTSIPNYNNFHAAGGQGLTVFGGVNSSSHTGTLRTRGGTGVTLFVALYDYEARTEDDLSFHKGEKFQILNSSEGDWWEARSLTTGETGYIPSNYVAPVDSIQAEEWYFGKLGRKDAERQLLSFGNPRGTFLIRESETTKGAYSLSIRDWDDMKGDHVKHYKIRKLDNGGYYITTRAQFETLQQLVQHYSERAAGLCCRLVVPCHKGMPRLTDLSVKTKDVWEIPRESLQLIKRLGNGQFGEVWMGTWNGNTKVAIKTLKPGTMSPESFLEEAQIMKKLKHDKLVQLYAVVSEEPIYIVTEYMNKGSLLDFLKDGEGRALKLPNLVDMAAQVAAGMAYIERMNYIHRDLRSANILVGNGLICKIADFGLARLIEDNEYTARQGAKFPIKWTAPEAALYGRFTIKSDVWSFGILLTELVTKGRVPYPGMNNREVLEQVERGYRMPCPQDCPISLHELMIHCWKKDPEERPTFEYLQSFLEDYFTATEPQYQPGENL
Text: ; Fig. 5a; Supplementary Table 1). We focused on Dyrk1a because other kinases inhibited by aminopyrazine compounds were not highly expressed in β-cells and because Dyrk1a was known to inhibit the NFAT pathway that was previously implicated in β-cell proliferation. We used molecular modelling to dock the aminopyrazine compounds into the published structure of Dyrk1a (protein databank accession code 2vx3.pdb; Fig. 5b).

[1] = system: β-catenin nuclear localization in primary rat islets; assay: β-Catenin nuclear translocation; type: cell-based
Experimental: At the end of the treatment, cells were fixed with 4% paraformaldehyde, blocked and permeabilized, and stained by standard immunofluorescence techniques for β-catenin (Cell signaling, #9562L; dilution 1:500), NFATc1 (Santa Cruz, rabbit polyclonal, SC-7294; dilution 1:200) or NFAT3c (Santa Cruz, SC-8321; dilution 1:200) and nuclear DNA was stained with DAPI (Molecular Probes; dilution 1:1,000). EdU incorporation was measured by click reaction with AlexaFluor-647-azide (Invitrogen). Plates were imaged with confocal microscope and analysed by Metamorph (Molecular Devices).

Dyrk1a = target: T2, Dyrk1a (Homo sapiens, UniProt Q13627); assay: Kinase profiling; type: biochemical; details: Conc 1000 nM; read-out: Percent inhibition, DYRK1a
T2 construct: purchased Ambit KINOMEscan

GSK3beta = target: T3, GSK3beta (Homo sapiens, UniProt P49841); assay: Kinase profiling; type: biochemical; details: Conc 1000 nM; read-out: Percent inhibition, GSK3beta
T3 construct: purchased Ambit KINOMEscan
T3 sequence (P49841 whole entry): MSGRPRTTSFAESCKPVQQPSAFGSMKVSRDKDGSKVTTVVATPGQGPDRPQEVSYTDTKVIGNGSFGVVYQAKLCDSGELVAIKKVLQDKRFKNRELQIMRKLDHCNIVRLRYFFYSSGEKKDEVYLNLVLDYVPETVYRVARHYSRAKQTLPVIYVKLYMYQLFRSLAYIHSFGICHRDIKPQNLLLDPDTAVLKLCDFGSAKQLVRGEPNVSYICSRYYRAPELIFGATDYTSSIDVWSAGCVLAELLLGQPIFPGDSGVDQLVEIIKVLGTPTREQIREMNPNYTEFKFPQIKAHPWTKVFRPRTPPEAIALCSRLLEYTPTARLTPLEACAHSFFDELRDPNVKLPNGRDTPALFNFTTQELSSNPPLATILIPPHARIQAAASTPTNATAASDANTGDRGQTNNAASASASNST

Row | inhibition at 1 µM (Dyrk1a) [%] | inhibition at 1 µM (GSK3beta) [%] | SMILES | increase in the number of Ki67-positive insulin-positive cells (intact human islets) [fold] | TUNEL-positive β-cells (primary human islets) | inhibition at 0.2 µM (Fyn; Conc 200 nM) [%] | inhibition at 1 µM (Fyn; Conc 1000 nM) [%] | β-catenin nuclear translocation [1]
1 | – | – | CC(C)Oc1ccc(F)c(-c2cnc(N)c(C(=O)Nc3cnccc3N3CCC[C@@H](C(=O)O)C3)n2)c1 [GNF4877] | 20 | unchanged | 26 | 77 | –
2 | 98 | 99 | Nc1ncc(-c2ccccc2)nc1C(=O)Nc1cnccc1N1CCC(C(=O)O)CC1 [GNF7156] | – | – | – | – | induced β-catenin nuclear translocation

From publication PMC4639830, “Inhibition of DYRK1A and GSK3B induces human β-cell proliferation” (Nature Communications, 2015)
